Where “and” joins values, the source holds several entries; their conditions need not be identical. Equal entries are not always repeated. Where two headings read alike, the source gives them in different places.
Experiments:
PDGFR [1] = test: PDGF-stimulated PDGFR tyrosine phosphorylation in NIH 3T3 cells; assay type: cell-based, mouse; details: NIH 3T3 cells; read-out: IC50 PDGFR tyrosine phosphorylation (PDGF)
Protocol: (§1) Inhibition of growth factor-dependent receptor tyrosine phosphorylation by GFBs. Starved Flk-1/KDR-overexpressing NIH 3T3 cells (Flk-1/NIH 3T3) or NIH 3T3 cells were pretreated with GFBs for 5 min before stimulation with VEGF (50 ng/ml) or PDGF-BB (10 ng/ml) for 10 min, respectively. The cells were then harvested and lysed, and proteins from the lysates were separated by SDS-PAGE and transferred to nitrocellulose. Membranes then were either immunoblotted with anti-phospho-VEGFR2 antibody (Cell Signaling Technologies, Beverly, Mass.) for activated Flk-1 or anti-phospho-tyrosine antibody (4G10, Upstate Biotechnology, Lake Placid, N.Y.) for activated PDGFR. Phosphotyrosine Flk-1 and PDGFR were quantified using a Bio-Rad Model GS-700 Imaging Densitometer (Bio-Rad Laboratories, Inc, Hercules, Calif.) (Blaskovich, M. A. et al. Nat Biotechnol, 2000, 18:1065-70).

VEGFR (Flk-1/KDR) = test: VEGF-stimulated Flk-1 tyrosine phosphorylation in Flk-1/NIH 3T3 cells; assay type: cell-based, human
Protocol: as §1

PDGFR [2] = test: 125I-PDGF binding to its receptor on NIH 3T3 cells; parameters: species or system mouse; details: 4° C., 0.5 hours, read-out: IC50 inhibition of [I-125]PDGF binding to its receptor
Protocol: Flk-1/NIH 3T3, NIH 3T3 and EGFR/NIH 3T3 cells were incubated with ^125I-VEGF, ^125I-PDGF and ^125I-EGF (50,000 cpm/well) respectively, along with increasing concentrations of GFB204. Cells were incubated at 4° C. for 0.5 hours, then washed three times with PBS and three times with lysis buffer prior to determining ^125I counts as described under Materials and Methods. An excess of cold VEGF, PDGF, and EGF was used to obtain non-specific binding levels. FIGS. 2A-2C show specific binding (% control) for PDGFR, Flk-1, and EGFR, respectively.
Binding of ^125I-growth factors to their receptors. The binding assay of ^125I-VEGF, ^125I-PDGF and ^125I-EGF to their respective receptors was carried out as described previously (Blaskovich, M. A. et al. Nat Biotechnol, 2000, 18:1065-70. Briefly, Flk-1/NIH 3T3 cells, NIH 3T3 cells and EGFR/NIH 3T3 cells were incubated with ^125I-VEGF, ^125I-PDGF and ^125I-EGF (50,000 cpm/well), respectively, and increasing concentrations of GFB204. Cells were incubated at 4° C. for 0.5 hours, then washed three times with PBS and three times with 25 mM Tris, pH 8.0, 1% Triton-X-100, 10% glycerol, and 1% SDS prior to determining ^125I counts on a gamma counter (Beckmann Inc.). An excess of cold growth factors were used to obtain nonspecific binding levels.

PDGF = PDGF (Homo sapiens, UniProt P01127); test: Tryptophan fluorescence titration of PDGF; assay type: binding; details: emission at 334 nm
Protocol: FIGS. 2D and 2E illustrate that GFB-204 binds PDGF and VEGF as indicated by growth factor tryptophan when increased amounts of GFB204 were added to PDGF and VEGF, respectively. The fluorescence was monitored by excitation at 295 nm and 228 nm, respectively, and emission at 334 nm.
Both VEGF and PDGF contain tryptophans that fluoresce at […] when excited at […].

[3] = tested on: adult human brain endothelial cells; test: VEGF-dependent human brain endothelial cell migration (modified Boyden chamber); assay type: cell-based; details: VEGF 20 ng/ml, 18 hours, read-out: IC50 VEGF-induced endothelial cell migration
Protocol: Migration of adult human brain endothelial cells was evaluated using a modified Boyden chamber assay as described in Materials and Methods. Vehicle control (FIG. 5A) or GFB204 (FIG. 5B) was added to 2% FBS-containing medium in the outer chamber, and the number of migrated cells to the VEGF-containing lower chamber was determined after an 18-hour incubation (FIG. 5C).
Human brain endothelial cell migration assay. Migration of adult human brain endothelial cells was evaluated using a modified Boyden chamber assay (BD BioCoat Matrigel Invasion Chamber) (Papadimitriou, E. et al. Biochem Biophys Res Commun, 2001, 282:306-13). The cells were plated at 4×10^4/ml onto an 8 μm pore size membrane coated with a thin layer of Matrigel basement membrane matrix. GFB204 was added to the medium in the outer chamber and the cells were cultured for 18 hours under VEGF-dependent condition in the lower chamber (VEGF 20 ng/ml). Non-invading cells were removed from the upper surface with a cotton swab. Membrane inserts were then fixed with 4% paraformaldehyde and stained with Crystal-Violet dye. The number of cells that migrated to the undersurface of the filters, was quantified by counting the cells migrated in randomly selected microscopic fields (10×). Samples were analyzed for significant differences using a Student's t-test for independent samples.

A-549 xenografts = test: Antitumor activity in the nude mouse A-549 tumor xenograft model; assay type: in vivo, nude mice; details: for average tumor size: 3 weeks
Protocol: FIG. 6 illustrates that GFB204 inhibits A-549 xenografts growth in nude mice (FIG. 6). A-549 cells were implanted into the flanks of nude mice and when the tumors reached an average size of about 100 mm^3, the mice were randomized and treated either with vehicle (♦) or GFB204 at 1 mg/kg (▪) and 5 mg/kg (●), and tumor sizes measured as described under Materials and Methods. Tumors were processed two hours after the last i.p. injection for CD31 IHC staining as described under Materials and Methods.
Antitumor activity in the nude mouse tumor xenograft model. Nude mice (Charles River, Wilmington, Mass.) were maintained in accordance with the Institutional Animal Care and Use Committee (IACUC) procedures and guidelines. A-549 cells were harvested and resuspended in PBS, then injected s.c. into the right and left flanks (10×10^6 cells per flank) of 8 week old female nude mice as reported previously (Sun, J. et al. Cancer Res, 1999, 59:4919-26). When tumors reached about 100 mm^3, animals were dosed i.p. with 0.2 ml solution once daily. Control animals received a vehicle whereas treated animals were injected with GFB204 (1 or 5 mg/kg/day). The tumor volumes were determined by measuring the length (l) and the width (w) and calculating the volume (V=lw^2/2) as described previously (Sun, J. et al. Cancer Res, 1999, 59:4919-26). Statistical significance between control and treated animals were evaluated using Student's t-test.

PDGF, sequence (P01127 82-190 limits assumed): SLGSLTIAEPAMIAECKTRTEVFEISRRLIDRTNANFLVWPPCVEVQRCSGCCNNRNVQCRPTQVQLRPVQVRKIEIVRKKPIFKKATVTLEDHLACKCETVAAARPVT

Work on `CCCCOc1c2cc(C(=O)Nc3cc(C(=O)O)cc(C(=O)OCc4ccccc4)c3)cc1Cc1cc(C(=O)Nc3cc(C(=O)O)cc(C(=O)OCc4ccccc4)c3)cc(c1OCCCC)Cc1cc(C(=O)Nc3cc(C(=O)O)cc(C(=O)OCc4ccccc4)c3)cc(c1OCCCC)Cc1cc(C(=O)Nc3cc(C(=O)O)cc(C(=O)OCc4ccccc4)c3)cc(c1OCCCC)C2` [GFB204] yielded an IC50 (PDGFR [1]) of 190 nM, an IC50 (VEGFR (Flk-1/KDR); VEGF 50 ng/ml stimulated Flk-1 tyrosine phosphorylation, read-out: IC50 (μM) VEGFR) of 0.48 ± 0.31 µM and an IC50 (VEGFR (Flk-1/KDR); read-out: IC50 VEGFR tyrosine phosphorylation (VEGF)) of 0.48 µM. For the same molecule, the IC50 (PDGFR [2]) was 154 nM and 200 to 500 nM, the “binding to PDGF by tryptophan fluorescence titration” value (PDGF) was “binds both PDGF and VEGF” and the IC50 [3] was 600 nM. For the same molecule, the average tumor size (A-549 xenografts; 1 mg/kg i.p. once daily) was 650±114 mm^3, the tumor growth inhibition (A-549 xenografts; 1 mg/kg, not statistically significant) was 15% and the average tumor size (A-549 xenografts; 5 mg/kg i.p. once daily) was 284±108 mm^3. For the same molecule, the tumor growth inhibition (A-549 xenografts; 5 mg/kg, statistically significant (p<0.05)) was 73%.

Source: patent publication US7718700B2, “Growth factor-binding compounds and methods of use” (Yale University, priority 2004, dated 2010)
